Converted amounts (≈) assume the structure as drawn.
Key:
[1] = system: HCT-116 cells; test: MTT cytotoxicity assay, HCT-116 cells; format: cell-based; details: Homo sapiens; HCT-116, MTT, 48 h treatment, triplicate, mean ±SD; read-out: IC50 (50% inhibition of cancer cell growth)
[2] = system: HepG2 cells; test: MTT cytotoxicity assay, HepG2 cells; format: cell-based; details: Homo sapiens, 48 h treatment, triplicate, mean ±SD, read-out: IC50 (50% inhibition of cancer cell growth)

**Q.** For `COc1cccc2c1C(=O)c1c(O)c3c(c(O)c1C2=O)C[C@@](O)(C(=O)CO)C[C@@H]3O[C@H]1C[C@H](N)[C@H](O)[C@H](C)O1` [DOX, doxorubicin], which IC50 [1] is on record?
**A.** Its IC50 is 0.86 ± 0.16 µg/mL (≈ 1.58 µM).

**Q.** And the IC50 [2]?
**A.** Its IC50 is 0.38 ± 0.07 µg/mL (≈ 0.699 µM).

— patent US11806363B1, “Green synthesis of silver nanoparticles using euphorbia dendroides aqueous extract” (King Faisal University, priority 2023, dated 2023)
